In ChEMBL document CHEMBL2203140, “Syntheses and structure-activity relationship studies of N-substituted-β-D-glucosaminides as selective cytotoxic agents” (Bioorg Med Chem Lett, 2012):

Experiments:
Format in all cases: functional, cell-based
A549 = experiment: Cytotoxicity against human A549 cells after 48 hrs by MTT assay; conditions: A549, 48 h
HeLa = experiment: Cytotoxicity against human HeLa cells after 48 hrs by MTT assay
HCT-116 = experiment: Cytotoxicity against human HCT116 cells after 48 hrs by MTT assay; conditions: HCT-116, 48 h
HepG2 = experiment: Cytotoxicity against human HepG2 cells after 48 hrs by MTT assay; conditions: HepG2, 48 h
MCF7 = experiment: Cytotoxicity against human MCF7 cells after 48 hrs by MTT assay; conditions: MCF7, 48 h
HT-1080 = experiment: Cytotoxicity against human HT1080 cells after 48 hrs by MTT assay; conditions: HT-1080, 48 h

| Structure (SMILES) | IC50 (A549) | IC50 (HeLa) | IC50 (HCT-116) | IC50 (HepG2) | IC50 (MCF7) | IC50 (HT-1080) |
| --- | --- | --- | --- | --- | --- | --- |
| C[C@@H]1CC[C@@]2(OC1)O[C@H]1C[C@H]3[C@@H]4CC=C5C[C@@H](O[C@@H]6O[C@H](CO)[C@@H](O)[C@H](O)[C@H]6NC(=O)/C=C/c6cccc(Br)c6)CC[C@]5(C)[C@H]4CC[C@]3(C)[C@H]1[C@@H]2C | > 50 µM | > 50 µM | > 50 µM | > 50 µM | > 50 µM | > 50 µM |
| C[C@@H]1CC[C@@]2(OC1)O[C@H]1C[C@H]3[C@@H]4CC=C5C[C@@H](O[C@@H]6O[C@H](CO)[C@@H](O)[C@H](O)[C@H]6NC(=O)NCc6ccccc6)CC[C@]5(C)[C@H]4CC[C@]3(C)[C@H]1[C@@H]2C | 28.5 µM | 27 µM | > 50 µM | > 50 µM | 23.9 µM | > 50 µM |
| C[C@@H]1CC[C@@]2(OC1)O[C@H]1C[C@H]3[C@@H]4CC=C5C[C@@H](O[C@@H]6O[C@H](CO)[C@@H](O)[C@H](O)[C@H]6NC(=O)NCc6ccc(F)cc6)CC[C@]5(C)[C@H]4CC[C@]3(C)[C@H]1[C@@H]2C | > 50 µM | > 50 µM | > 50 µM | > 50 µM | > 50 µM | 42 µM |
| COc1ccc(CNC(=O)N[C@H]2[C@H](O[C@H]3CC[C@@]4(C)C(=CC[C@H]5[C@@H]6C[C@@H]7O[C@]8(CC[C@@H](C)CO8)[C@@H](C)[C@@H]7[C@@]6(C)CC[C@@H]54)C3)O[C@H](CO)[C@@H](O)[C@@H]2O)cc1 | > 50 µM | > 50 µM | > 50 µM | > 50 µM | > 50 µM | > 50 µM |
| C[C@@H]1CC[C@@]2(OC1)O[C@H]1C[C@H]3[C@@H]4CC=C5C[C@@H](O[C@@H]6O[C@H](CO)[C@@H](O)[C@H](O)[C@H]6NC(=O)NC6CC6)CC[C@]5(C)[C@H]4CC[C@]3(C)[C@H]1[C@@H]2C | > 50 µM | 43.5 µM | > 50 µM | > 50 µM | > 50 µM | > 50 µM |
| C[C@@H]1CC[C@@]2(OC1)O[C@H]1C[C@H]3[C@@H]4CC=C5C[C@@H](O[C@@H]6O[C@H](CO)[C@@H](O)[C@H](O)[C@H]6NC(=O)NC(C)(C)C)CC[C@]5(C)[C@H]4CC[C@]3(C)[C@H]1[C@@H]2C | > 50 µM | 27.6 µM | > 50 µM | > 50 µM | 26.8 µM | 42.3 µM |
| CCCCCCCNC(=O)N[C@H]1[C@H](O[C@H]2CC[C@@]3(C)C(=CC[C@H]4[C@@H]5C[C@@H]6O[C@]7(CC[C@@H](C)CO7)[C@@H](C)[C@@H]6[C@@]5(C)CC[C@@H]43)C2)O[C@H](CO)[C@@H](O)[C@@H]1O | > 50 µM | > 50 µM | > 50 µM | > 50 µM | > 50 µM | 43 µM |
| C[C@@H]1CC[C@@]2(OC1)O[C@H]1C[C@H]3[C@@H]4CC=C5C[C@@H](O[C@@H]6O[C@H](CO)[C@@H](O)[C@H](O)[C@H]6NC(=O)NN6CCCCC6)CC[C@]5(C)[C@H]4CC[C@]3(C)[C@H]1[C@@H]2C | > 50 µM | > 50 µM | > 50 µM | > 50 µM | > 50 µM | 35.1 µM |
| C[C@@H]1CC[C@@]2(OC1)O[C@H]1C[C@H]3[C@@H]4CC=C5C[C@@H](O[C@@H]6O[C@H](CO)[C@@H](O)[C@H](O)[C@H]6NC(=S)N/N=C/c6ccccc6)CC[C@]5(C)[C@H]4CC[C@]3(C)[C@H]1[C@@H]2C | 49.7 µM | 36.2 µM | 40 µM | 29.5 µM | 48.2 µM | > 50 µM |
| COc1ccc(/C=N/NC(=S)N[C@H]2[C@H](O[C@H]3CC[C@@]4(C)C(=CC[C@H]5[C@@H]6C[C@@H]7O[C@]8(CC[C@@H](C)CO8)[C@@H](C)[C@@H]7[C@@]6(C)CC[C@@H]54)C3)O[C@H](CO)[C@@H](O)[C@@H]2O)cc1 | 37.3 µM | 34.8 µM | 38.2 µM | 28.2 µM | > 50 µM | > 50 µM |
| C[C@@H]1CC[C@@]2(OC1)O[C@H]1C[C@H]3[C@@H]4CC=C5C[C@@H](O[C@@H]6O[C@H](CO)[C@@H](O)[C@H](O)[C@H]6NC(=S)N/N=C/c6cc(C(F)(F)F)cc(C(F)(F)F)c6)CC[C@]5(C)[C@H]4CC[C@]3(C)[C@H]1[C@@H]2C | > 50 µM | > 50 µM | > 50 µM | > 50 µM | > 50 µM | > 50 µM |
| Cc1ccc(/C=C/C(=O)N[C@H]2[C@H](O[C@H]3CC[C@@]4(C)C(=CC[C@H]5[C@@H]6C[C@@H]7O[C@]8(CC[C@@H](C)CO8)[C@@H](C)[C@@H]7[C@@]6(C)CC[C@@H]54)C3)O[C@H](CO)[C@@H](O)[C@@H]2O)cc1 | 41.6 µM | 6.5 µM | 40.4 µM | 35.5 µM | 5.3 µM | 23.5 µM |
| COc1ccccc1/C=C/C(=O)N[C@H]1[C@H](O[C@H]2CC[C@@]3(C)C(=CC[C@H]4[C@@H]5C[C@@H]6O[C@]7(CC[C@@H](C)CO7)[C@@H](C)[C@@H]6[C@@]5(C)CC[C@@H]43)C2)O[C@H](CO)[C@@H](O)[C@@H]1O | 23.1 µM | 27.5 µM | 38.9 µM | 29.5 µM | 23.1 µM | 4.3 µM |
| COc1cccc(/C=C/C(=O)N[C@H]2[C@H](O[C@H]3CC[C@@]4(C)C(=CC[C@H]5[C@@H]6C[C@@H]7O[C@]8(CC[C@@H](C)CO8)[C@@H](C)[C@@H]7[C@@]6(C)CC[C@@H]54)C3)O[C@H](CO)[C@@H](O)[C@@H]2O)c1 | 26.9 µM | 27 µM | > 50 µM | > 50 µM | 24.1 µM | 26.6 µM |
| COc1ccc(/C=C/C(=O)N[C@H]2[C@H](O[C@H]3CC[C@@]4(C)C(=CC[C@H]5[C@@H]6C[C@@H]7O[C@]8(CC[C@@H](C)CO8)[C@@H](C)[C@@H]7[C@@]6(C)CC[C@@H]54)C3)O[C@H](CO)[C@@H](O)[C@@H]2O)cc1 | 24.4 µM | 6.1 µM | 29.5 µM | 30.7 µM | 0.5 µM | 3.5 µM |
| COc1cccc(/C=C/C(=O)N[C@H]2[C@H](O[C@H]3CC[C@@]4(C)C(=CC[C@H]5[C@@H]6C[C@@H]7O[C@]8(CC[C@@H](C)CO8)[C@@H](C)[C@@H]7[C@@]6(C)CC[C@@H]54)C3)O[C@H](CO)[C@@H](O)[C@@H]2O)c1OC | 43.4 µM | 36.2 µM | 47.4 µM | 45.6 µM | 44.4 µM | 21.2 µM |
| COc1ccc(/C=C/C(=O)N[C@H]2[C@H](O[C@H]3CC[C@@]4(C)C(=CC[C@H]5[C@@H]6C[C@@H]7O[C@]8(CC[C@@H](C)CO8)[C@@H](C)[C@@H]7[C@@]6(C)CC[C@@H]54)C3)O[C@H](CO)[C@@H](O)[C@@H]2O)c(OC)c1 | 27.1 µM | 22.3 µM | 42.9 µM | 41.3 µM | 26.7 µM | 5.8 µM |
| COc1ccc(OC)c(/C=C/C(=O)N[C@H]2[C@H](O[C@H]3CC[C@@]4(C)C(=CC[C@H]5[C@@H]6C[C@@H]7O[C@]8(CC[C@@H](C)CO8)[C@@H](C)[C@@H]7[C@@]6(C)CC[C@@H]54)C3)O[C@H](CO)[C@@H](O)[C@@H]2O)c1 | 47.8 µM | 32.2 µM | 35.6 µM | 31.7 µM | > 50 µM | > 50 µM |
| COc1ccc(/C=C/C(=O)N[C@H]2[C@H](O[C@H]3CC[C@@]4(C)C(=CC[C@H]5[C@@H]6C[C@@H]7O[C@]8(CC[C@@H](C)CO8)[C@@H](C)[C@@H]7[C@@]6(C)CC[C@@H]54)C3)O[C@H](CO)[C@@H](O)[C@@H]2O)cc1OC | 30.3 µM | 26.1 µM | 29 µM | 25.9 µM | 31.3 µM | > 50 µM |
| COc1cc(/C=C/C(=O)N[C@H]2[C@H](O[C@H]3CC[C@@]4(C)C(=CC[C@H]5[C@@H]6C[C@@H]7O[C@]8(CC[C@@H](C)CO8)[C@@H](C)[C@@H]7[C@@]6(C)CC[C@@H]54)C3)O[C@H](CO)[C@@H](O)[C@@H]2O)cc(OC)c1OC | > 50 µM | > 50 µM | > 50 µM | > 50 µM | > 50 µM | > 50 µM |
| C[C@@H]1CC[C@@]2(OC1)O[C@H]1C[C@H]3[C@@H]4CC=C5C[C@@H](O[C@@H]6O[C@H](CO)[C@@H](O)[C@H](O)[C@H]6NC(=O)/C=C/c6cccc(Cl)c6)CC[C@]5(C)[C@H]4CC[C@]3(C)[C@H]1[C@@H]2C | > 50 µM | > 50 µM | > 50 µM | > 50 µM | > 50 µM | > 50 µM |
| C[C@@H]1CC[C@@]2(OC1)O[C@H]1C[C@H]3[C@@H]4CC=C5C[C@@H](O[C@@H]6O[C@H](CO)[C@@H](O)[C@H](O)[C@H]6NC(=O)/C=C/c6ccccc6[N+](=O)[O-])CC[C@]5(C)[C@H]4CC[C@]3(C)[C@H]1[C@@H]2C | > 50 µM | > 50 µM | > 50 µM | > 50 µM | > 50 µM | 36.5 µM |
| CC(=O)N[C@H]1[C@H](O[C@H]2CC[C@@]3(C)C(=CC[C@H]4[C@@H]5C[C@@H]6O[C@]7(CC[C@@H](C)CO7)[C@@H](C)[C@@H]6[C@@]5(C)CC[C@@H]43)C2)O[C@H](CO)[C@@H](O)[C@@H]1O | > 50 µM | – | > 50 µM | > 50 µM | – | > 50 µM |
| O=c1[nH]cc(F)c(=O)[nH]1 [FLUOROURACIL] | – | 63.4 µM | 36.4 µM | 51.5 µM | 78.6 µM | 15.2 µM |
